Experimental findings from patent US7741281B2, “Hepatitis C virus inhibitors” (Bristol-Myers Squibb Company, priority 2005, dated 2010) are described below.

In series [1] the test system is HCV replicon in HUH-7 cells. As to the kind of experiment: HCV replicon FRET assay. It counts as cell-based, HCV strain 1b. To be noted: Hepatitis C virus, Huh-7; HCV replicon; read-out: EC50 Activity Range. From the text: An HCV replicon whole cell system was established as described by Lohmann V, Korner F, Koch J, Herian U, Theilmann L, Bartenschlager R., Science 285(5424):110-3 (1999). This system enabled us to evaluate the effects of our HCV Protease compounds on HCV RNA replication. Briefly, using the HCV strain 1b sequence described in the Lohmann paper (Assession number: AJ238799), an HCV cDNA was synthesized by Operon Technologies, Inc. (Alameda, Calif.), and the full-length replicon was then assembled in plasmid pGem9zf(+) (Promega, Madison, Wis.) using standard molecular biology techniques. The replicon consists of (i) the HCV 5′ UTR fused to the first 12 amino acids of the capsid protein, (ii) the neomycin phosphotransferase gene (neo), (iii) the IRES from encephalomyocarditis virus (EMCV), and (iv) HCV NS3 to NS5B genes and the HCV 3′ UTR. Plasmid DNAs were linearized with ScaI and RNA transcripts were synthesized in vitro using the T7 MegaScript transcription kit (Ambion, Austin, Tex.) according to manufacturer's directions. In vitro transcripts of the cDNA were transfected into the human hepatoma cell line, HUH-7. […] Resulting cell lines were characterized for positive and negative strand RNA production and protein production over time.
The HCV replicon FRET assay was developed to monitor the inhibitory effects of compounds described in the disclosure on HCV viral replication. HUH-7 cells, constitutively expressing the HCV replicon, were grown in Dulbecco's Modified Eagle Media (DMEM) (Gibco-BRL) containing 10% Fetal calf serum (FCS) (Sigma) and 1 mg/ml G418 (Gibco-BRL). Cells were seeded the night before (1.5×10^4 cells/well) in 96-well tissue-culture sterile plates. Compound and no compound controls were prepared in DMEM containing 4% FCS, 1:100 Penicillin/Streptomysin (Gibco-BRL), 1:100 L-glutamine and 5% DMSO in the dilution plate (0.5% DMSO final concentration in the assay). Compound/DMSO mixes were added to the cells and incubated for 4 days at 37° C. After 4 days, cells were first assessed for cytotoxicity using alamar Blue (Trek Diagnotstic Systems) for a CC50 reading. The toxicity of compound (CC50) was determined by adding 1/10th volume of alamar Blue to the media incubating the cells. After 4 hours, the fluorescence signal from each well was read, with an excitation wavelength at 530 nm and an emission wavelength of 580 nm, using the Cytofluor Series 4000 (Perspective Biosystems). Plates were then rinsed thoroughly with Phosphate-Buffered Saline (PBS) (3 times 150 μl). The cells were lysed with 25 μl of a lysis assay reagent containing an HCV protease substrate (5× cell Luciferase cell culture lysis reagent (Promega #El 53A) diluted to 1× with distilled water, NaCl added to 150 mM final, the FRET peptide substrate (as described for the enzyme assay above) diluted to 10 μM final from a 2 mM stock in 100% DMSO. […]. The plate was then placed into the Cytofluor 4000 instrument which had been set to 340 nm excitation/490 nm emission, automatic mode for 21 cycles and the plate read in a kinetic mode. EC50 determinations were carried out as described for the IC50 determinations.
Background: A replicon is a self-replicating genome or part of one, used to study replication in cells.

The target in series [2] is T1, HCV NS3/4A protease complex, BMS strain (UniProt P27958, species not given/STRAIN_BMS).
T1 construct: for H77 and J4L6S; fused on or other part: Three-lysine solubilizing tail at the end of NS4A, for the H77 and J4L6S constructs; Purification on Ni-NTA and the pET21b vector imply a His tag
Put plainly: FRET peptide assay to monitor HCV NS3/4A proteolytic activity (BMS strain). In kind it is biochemical, HCV genotype 1a. To be noted: NS3/4A BMS strain; read-out: IC50 Activity Range. From the text:
HCV NS3 protease complexes, derived from the BMS strain, H77 strain or J4L6S strain, were generated, as described below. These purified recombinant proteins were generated for use in a homogeneous assay (see below) to provide an indication of how effective compounds of the present disclosure would be in inhibiting HCV NS3 proteolytic activity.
Serum from an HCV-infected patient was obtained from Dr. T. Wright, San Francisco Hospital. An engineered full-length cDNA (compliment deoxyribonucleic acid) template of the HCV genome (BMS strain) was constructed from DNA fragments obtained by reverse transcription-PCR (RT-PCR) of serum RNA (ribonucleic acid) and using primers selected on the basis of homology between other genotype 1a strains. From the determination of the entire genome sequence, a genotype 1a was assigned to the HCV isolate according to the classification of Simmonds et al. (See P Simmonds, K A Rose, S Graham, S W Chan, F McOmish, B C Dow, E A Follett, P L Yap and H Marsden, J. Clin. Microbiol., 31(6), 1493-1503 (1993)). […] The infectious clones, H77 (1a genotype) and J4L6S (1b genotype) were obtained from R. Purcell (NIH) and the sequences are published in Genbank (AAB67036, see Yanagi, M., Purcell, R. H., Emerson, S. U. and Bukh, J. Proc. Natl. Acad. Sci. U.S.A. 94(16), 8738-8743 (1997); AF054247, see Yanagi, M., St Claire, M., Shapiro, M., Emerson, S. U., Purcell, R. H. and Bukh, J, Virology 244 (1), 161-172. (1998)).
The H77 and J4L6S strains were used for production of recombinant NS3/4A protease complexes. DNA encoding the recombinant HCV NS3/4A protease complex (amino acids 1027 to 1711) for these strains were manipulated as described by P. Gallinari et al. (see Gallinari P, Paolini C, Brennan D, Nardi C, Steinkuhler C, De Francesco R. Biochemistry. 38(17):5620-32, (1999)). Briefly, a three-lysine solubilizing tail was added at the 3′-end of the NS4A coding region. The cysteine in the P1 position of the NS4A-NS4B cleavage site (amino acid 1711) was changed to a glycine to avoid the proteolytic cleavage of the lysine tag. Furthermore, a cysteine to serine mutation was introduced by PCR at amino acid position 1454 to prevent the autolytic cleavage in the NS3 helicase domain. The variant DNA fragment was cloned in the pET21b bacterial expression vector (Novagen) and the NS3/4A complex was expressed in Escherichia. coli strain BL21 (DE3) (Invitrogen) following the protocol described by P. Gallinari et al. (see Gallinari P, Brennan D, Nardi C, Brunetti M, Tomei L, Steinkuhler C, De Francesco R., J Virol. 72(8):6758-69 (1998)) with modifications. Briefly, the NS3/4A protease complex expression was induced with 0.5 millimolar (mM) Isopropyl β-D-1-thiogalactopyranoside (IPTG) for 22 hours (h) at 20° C. A typical fermentation (1 Liter (L)) yielded approximately 10 grams (g) of wet cell paste. The cells were resuspended in lysis buffer (10 mL/g) consisting of 25 mM N-(2-Hydroxyethyl)Piperazine-N′-(2-Ethane Sulfonic acid) (HEPES), pH 7.5, 20% glycerol, 500 mM Sodium Chloride (NaCl), 0.5% Triton X-100, 1 microgram/milliliter (“μg/mL”) lysozyme, 5 mM Magnesium Chloride (MgCl2), 1 μg/ml DnaseI, 5 mM β-Mercaptoethanol (βME), Protease inhibitor-Ethylenediamine Tetraacetic acid (EDTA) free (Roche), homogenized and incubated for 20 minutes (min) at 4° C. The homogenate was sonicated and clarified by ultra-centrifugation at 235000 g for 1 h at 4° C. Imidazole was added to the supernatant to a final concentration of 15 mM and the pH adjusted to 8.0. The crude protein extract was loaded on a Nickel-Nitrilotriacetic acid (Ni-NTA) column pre-equilibrated with buffer B (25 mM HEPES, pH 8.0, 20% glycerol, 500 mM NaCl, 0.5% Triton X-100, 15 mM imidazole, 5 mM βME). The sample was loaded at a flow rate of 1 mL/min. The column was washed with 15 column volumes of buffer C (same as buffer B except with 0.2% Triton X-100). The protein was eluted with 5 column volumes of buffer D (same as buffer C except with 200 mM Imidazole). […]

The structures appear in SMILES notation. Some results are limits rather than exact numbers.

T1 sequence (P27958 1027-1657, change not shown, one chain of several): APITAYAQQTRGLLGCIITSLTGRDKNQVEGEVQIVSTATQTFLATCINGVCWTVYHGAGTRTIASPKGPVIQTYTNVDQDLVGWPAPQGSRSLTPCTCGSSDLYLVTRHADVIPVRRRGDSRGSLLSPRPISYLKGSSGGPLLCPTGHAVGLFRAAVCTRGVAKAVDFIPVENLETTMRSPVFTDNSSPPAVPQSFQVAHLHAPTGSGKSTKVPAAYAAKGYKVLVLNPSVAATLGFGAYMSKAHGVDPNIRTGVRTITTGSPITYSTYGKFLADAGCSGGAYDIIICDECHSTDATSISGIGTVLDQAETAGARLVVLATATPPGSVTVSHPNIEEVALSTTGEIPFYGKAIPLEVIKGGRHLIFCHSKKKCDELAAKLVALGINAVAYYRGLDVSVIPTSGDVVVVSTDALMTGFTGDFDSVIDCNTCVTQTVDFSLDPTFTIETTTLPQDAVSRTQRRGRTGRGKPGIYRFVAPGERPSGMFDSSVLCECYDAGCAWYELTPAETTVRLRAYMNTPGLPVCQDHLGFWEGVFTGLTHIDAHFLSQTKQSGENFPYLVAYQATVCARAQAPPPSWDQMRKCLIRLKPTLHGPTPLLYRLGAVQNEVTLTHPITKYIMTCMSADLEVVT

Regarding `CC(C)(C)OC(=O)N[C@H]1CCCOC/C=C\[C@@H]2C[C@@]2(C(=O)NS(=O)(=O)C2CC2)NC(=O)[C@@H]2C[C@@H](OCc3ccccc3)CN2C1=O` [Compound 5, (1S,4R,6S,14S,18R,7-cis)-18-benzyloxy-14-tert-butoxycarbonylamino-4-cyclopropanesulfonylaminocarbonyl-2,15-dioxo-3,16-diaza-10-oxatricyclo[14.3.0.0^4,6]nonadec-7-ene], the melting point (as a rule, the temperature of the solid-liquid transition) lay within 147 to 149 °C. Also, in series [1], the EC50 (usually the concentration at which the effect is half-maximal) was over 1000 nM. Further, the IC50 (usually the concentration that gives 50% inhibition) in series [2] is under 100 nM.

For `CC(C)(C)OC(=O)N[C@H]1CCCOC/C=C\[C@@H]2C[C@@]2(C(=O)NS(=O)(=O)C2CC2)NC(=O)[C@@H]2C[C@@H](OC(C)(C)C)CN2C1=O` [Compound 6, (1S,4R,6S,14S,18R,7-cis)-18-tert-butoxy-14-tert-butoxycarbonylamino-4-cyclopropanesulfonylaminocarbonyl-2,15-dioxo-3,16-diaza-10-oxatricyclo[14.3.0.0^4,6]nonadec-7-ene], in series [1], the EC50 was over 1000 nM. The IC50 in series [2] was 100 to 1000 nM.

In the case of `CC(C)(C)OC(=O)N[C@H]1CCCCC/C=C\[C@@H]2C[C@@]2(C(=O)NS(=O)(=O)C2CC2)NC(=O)[C@@H]2C[C@@H](Oc3ccccn3)CN2C1=O` [Compound 1], the EC50 in series [1] lay in the range of 100 to 1000 nM. For the same compound, the IC50 in series [2] was under 100 nM.

Take `CC(C)(C)OC(=O)N[C@H]1CCCCC/C=C\[C@@H]2C[C@@]2(C(=O)NS(=O)(=O)C2CC2)NC(=O)[C@@H]2C[C@@H](Oc3ccc([N+](=O)[O-])cc3)CN2C1=O` [Compound 2]: in series [1], the 50% effective concentration (EC50) was over 1000 nM. For the same compound, the IC50 in series [2] is under 100 nM.
